Laboratory results as given in ChEMBL document CHEMBL1201862, “PubChem BioAssay data set” (2004).
Active and inactive are the calls of the source.

What was measured:
Beta-lactamase [1] = biological target: T1, Beta-lactamase (Pseudomonas aeruginosa, UniProt Q79MP6); experiment: inhibition of IMP-1 beta-lactamase activity – biochemical, epi-absorbance, selectivity assay for VIM-2 inhibitor project, dose response (AID 1920)
Beta-lactamase [2] = biological target: Beta-lactamase (Salmonella choleraesuis (strain SC-B67), UniProt Q5J463); experiment: Epi-absorbance-based counterscreen for selective VIM-2 inhibitors: dose response biochemical high throughput screening assay to identify inhibitors of TEM-1 serine-beta-lactamase.
Beta-lactamase [3] = biological target: T1, Beta-lactamase; experiment: […] counterscreen for selective VIM-2 inhibitors: dose response biochemical high throughput screening assay to identify inhibitors of IMP-1 metallo-beta-lactamase.
[4] = biological target: 72 kDa type IV collagenase (Homo sapiens, UniProt P08253); experiment: Dose Response validation of uHTS RPN11 inhibitor hits using a MMP-2 Fluorescence assay.; format: functional
Prothrombin = Prothrombin (Bos taurus, UniProt P00735); experiment: thrombin protease inhibitors – biochemical, fluorescence polarization, uHTS hits, dose response (AID 602369); format: functional
[5] = biological target: G-protein coupled receptor 55 (Homo sapiens, UniProt Q9Y2T6); experiment: inhibition of LPI-stimulated GPR55 beta-arrestin translocation – imaging, U2OS, beta-arrestin-GFP, LPI agonist, primary screen (AID 2013); format: functional;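 further: antagonist potency measured as reduced agonist-driven arrestin aggregation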
[6] = biological target: T2, Carboxy-terminal domain RNA polymerase II polypeptide A small phosphatase 1 (Homo sapiens, UniProt Q9GZU7); experiment: CTDSP1 inhibitors, concentration-response, biochemical, absorbance readout, ultra-high-throughput screen actives (AID 540297); format: functional
T2 sequence (Q9GZU7 whole entry): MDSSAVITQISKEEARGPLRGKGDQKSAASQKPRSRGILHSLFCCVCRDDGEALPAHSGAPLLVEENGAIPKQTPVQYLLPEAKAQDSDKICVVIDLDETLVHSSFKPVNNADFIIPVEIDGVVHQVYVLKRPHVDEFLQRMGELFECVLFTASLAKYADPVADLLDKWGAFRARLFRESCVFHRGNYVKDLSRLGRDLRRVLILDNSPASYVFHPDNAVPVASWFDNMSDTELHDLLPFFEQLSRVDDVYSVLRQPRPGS

[7] = biological target: DNA (cytosine-5)-methyltransferase 1 (Homo sapiens, UniProt P26358); experiment: inhibition of DNA methylation by DNMT1 – biochemical, fluorescent molecular beacon, confirmation (AID 602386); format: functional
[8] = biological target: T3, Histone-lysine N-methyltransferase NSD2 (Homo sapiens, UniProt O96028); format: biochemical
T3 sequence (O96028 whole entry): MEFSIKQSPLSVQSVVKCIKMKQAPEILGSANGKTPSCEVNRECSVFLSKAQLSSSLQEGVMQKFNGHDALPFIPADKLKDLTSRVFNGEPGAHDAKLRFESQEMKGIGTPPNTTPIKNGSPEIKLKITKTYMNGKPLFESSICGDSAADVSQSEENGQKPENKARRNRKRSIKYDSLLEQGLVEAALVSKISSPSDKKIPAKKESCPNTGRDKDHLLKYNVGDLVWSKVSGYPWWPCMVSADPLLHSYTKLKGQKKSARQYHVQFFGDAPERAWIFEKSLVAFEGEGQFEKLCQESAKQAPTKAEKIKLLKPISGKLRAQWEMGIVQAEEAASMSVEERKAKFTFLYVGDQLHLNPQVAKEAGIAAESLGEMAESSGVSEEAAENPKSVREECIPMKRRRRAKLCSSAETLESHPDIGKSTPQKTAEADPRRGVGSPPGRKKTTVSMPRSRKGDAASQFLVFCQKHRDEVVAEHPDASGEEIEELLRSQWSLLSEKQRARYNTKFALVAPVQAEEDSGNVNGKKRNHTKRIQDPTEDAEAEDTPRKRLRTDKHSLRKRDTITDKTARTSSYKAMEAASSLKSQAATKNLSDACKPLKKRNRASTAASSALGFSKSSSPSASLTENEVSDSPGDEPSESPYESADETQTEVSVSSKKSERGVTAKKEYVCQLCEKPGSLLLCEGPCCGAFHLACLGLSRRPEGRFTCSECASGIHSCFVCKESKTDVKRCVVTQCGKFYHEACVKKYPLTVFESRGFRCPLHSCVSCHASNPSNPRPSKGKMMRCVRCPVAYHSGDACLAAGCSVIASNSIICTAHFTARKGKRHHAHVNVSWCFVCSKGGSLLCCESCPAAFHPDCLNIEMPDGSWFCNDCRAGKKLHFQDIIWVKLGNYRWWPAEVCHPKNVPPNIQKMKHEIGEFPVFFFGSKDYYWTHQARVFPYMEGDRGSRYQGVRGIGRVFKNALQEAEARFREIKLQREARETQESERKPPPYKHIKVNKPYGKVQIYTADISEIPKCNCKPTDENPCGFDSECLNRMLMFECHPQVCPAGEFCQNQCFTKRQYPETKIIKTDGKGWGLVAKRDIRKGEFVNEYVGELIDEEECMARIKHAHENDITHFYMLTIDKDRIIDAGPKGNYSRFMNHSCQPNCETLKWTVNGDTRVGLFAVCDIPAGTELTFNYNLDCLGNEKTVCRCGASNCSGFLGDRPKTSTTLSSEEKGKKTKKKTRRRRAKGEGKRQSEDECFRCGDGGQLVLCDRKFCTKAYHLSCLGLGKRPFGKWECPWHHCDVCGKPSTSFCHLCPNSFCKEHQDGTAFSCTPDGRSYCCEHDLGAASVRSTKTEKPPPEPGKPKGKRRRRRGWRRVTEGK

[9] = biological target: 26S proteasome non-ATPase regulatory subunit 14 (Homo sapiens, UniProt O00487); experiment: inhibition of proteasome subunit RPN11 – biochemical, fluorescence polarization, uHTS hits, confirmation (AID 602368); format: functional
[10] = biological target: Potassium voltage-gated channel subfamily KQT member 2 (Rattus norvegicus, UniProt O88943); experiment: blockers of KCNQ2 channel current – cell-based, automated electrophysiology, set II, rat KCNQ2, dose response (AID 588637); format: functional
[11] = biological target: T4, Tyrosine-protein phosphatase non-receptor type 22 (Homo sapiens, UniProt Q9Y2R2); experiment: lymphoid phosphatase LYP inhibitors – biochemical, selectivity assay for STEP inhibitor project, dose response (AID 624241); format: functional
T4 sequence (Q9Y2R2 whole entry): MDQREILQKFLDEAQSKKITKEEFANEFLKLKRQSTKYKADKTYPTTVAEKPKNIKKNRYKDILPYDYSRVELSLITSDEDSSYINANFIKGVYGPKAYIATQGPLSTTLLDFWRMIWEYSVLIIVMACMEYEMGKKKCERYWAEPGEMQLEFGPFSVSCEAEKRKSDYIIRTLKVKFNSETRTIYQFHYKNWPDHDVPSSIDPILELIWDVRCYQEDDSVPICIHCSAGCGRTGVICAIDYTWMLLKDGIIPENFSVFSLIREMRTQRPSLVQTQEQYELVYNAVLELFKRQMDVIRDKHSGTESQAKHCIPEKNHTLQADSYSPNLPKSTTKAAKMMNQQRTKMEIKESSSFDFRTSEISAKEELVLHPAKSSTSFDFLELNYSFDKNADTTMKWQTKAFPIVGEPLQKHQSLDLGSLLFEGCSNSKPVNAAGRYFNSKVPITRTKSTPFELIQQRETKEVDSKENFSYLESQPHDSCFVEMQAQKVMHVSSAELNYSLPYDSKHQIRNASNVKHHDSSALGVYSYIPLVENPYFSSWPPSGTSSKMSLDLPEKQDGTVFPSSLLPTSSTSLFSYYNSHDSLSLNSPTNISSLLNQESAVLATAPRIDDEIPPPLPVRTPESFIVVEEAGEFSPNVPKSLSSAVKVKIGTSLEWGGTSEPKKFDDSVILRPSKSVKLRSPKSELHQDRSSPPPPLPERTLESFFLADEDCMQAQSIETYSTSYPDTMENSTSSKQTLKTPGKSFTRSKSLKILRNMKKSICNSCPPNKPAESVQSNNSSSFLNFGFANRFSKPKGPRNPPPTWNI

[12] = viability of PTEN-deleted HCT116 cells – cell-based, HCT116 PTEN knockout, dose response (AID 1047); format: functional;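 further: HCT116 colon tumor cells with PTEN knocked out; cells exposed to compound for 60 hours before readout; potency for loss of cell viability measured by luminescence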
[13] = viability of HCT116 lacking mutant beta-catenin – cell-based, human colon tumor, dose response (AID 1045); format: functional;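 further: HCT116 colon tumor cells with beta catenin knocked out; cells exposed to compound for 60 hours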
[14] = biological target: Dual specificity protein phosphatase 3 (Homo sapiens, UniProt P51452); experiment: VHR phosphatase inhibition, dose response, selectivity assay for STEP inhibitor project, biochemical (AID 602374); format: functional; conditions: read-out: IC50_Mean
[15] = biological target: Tyrosine-protein phosphatase non-receptor type 11 (Homo sapiens, UniProt Q06124); experiment: PTPN11 enzyme inhibitors – biochemical, selectivity assay for STEP inhibitor project, dose response (AID 602367); format: functional; conditions: read-out: IC50_Mean
[16] = biological target: Tyrosine-protein phosphatase non-receptor type 5 (Homo sapiens, UniProt P54829); experiment: PTPN5 enzyme inhibition – biochemical, fluorescence intensity, uHTS hits, confirmation (AID 602372); format: functional; conditions: read-out: IC50_Mean
[17] = biological target: T5, Low molecular weight phosphotyrosine protein phosphatase (Homo sapiens, UniProt P24666); format: functional; conditions: read-out: IC50_Mean
T5 sequence (P24666 whole entry): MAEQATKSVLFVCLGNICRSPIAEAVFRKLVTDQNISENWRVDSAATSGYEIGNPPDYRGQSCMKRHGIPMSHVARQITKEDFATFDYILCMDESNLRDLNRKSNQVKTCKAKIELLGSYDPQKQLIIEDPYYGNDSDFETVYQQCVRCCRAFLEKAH

[18] = biological target: T5, Low molecular weight phosphotyrosine protein phosphatase; format: functional; conditions: read-out: IC50_Mean; remark: listed apart in the source
[19] = biological target: Ras and Rab interactor 1/Tyrosine-protein kinase ABL1 (Homo sapiens, UniProt P00519+Q13671); format: functional;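 further: biochemical TR-FRET dose-response test measuring inhibition of binding between Rin1 and Abl proteins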
[20] = biological target: T6, ATP-dependent translocase ABCB1 (Homo sapiens, UniProt P08183); experiment: P-gp JC-1 efflux blockade concentration-response – Jurkat-DNR cells, flow cytometry, set 2, dose response (AID 504569); format: functional; conditions: read-out: EC50_MICROM_;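 further: potency of pump inhibitors that raise cellular JC-1 green fluorescence up to the nicardipine level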
[21] = biological target: T6, ATP-dependent translocase ABCB1; experiment: inhibition of BCRP-mediated JC-1 efflux – Ig-MXP3 cells, flow cytometry, set 2, dose response (AID 504566); format: functional; conditions: read-out: EC50_MICROM_;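 further: flow cytometry median green fluorescence of retained JC-1 dye; potency of efflux pump inhibition measured as rising substrate retention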

T1 sequence (Q79MP6 whole entry): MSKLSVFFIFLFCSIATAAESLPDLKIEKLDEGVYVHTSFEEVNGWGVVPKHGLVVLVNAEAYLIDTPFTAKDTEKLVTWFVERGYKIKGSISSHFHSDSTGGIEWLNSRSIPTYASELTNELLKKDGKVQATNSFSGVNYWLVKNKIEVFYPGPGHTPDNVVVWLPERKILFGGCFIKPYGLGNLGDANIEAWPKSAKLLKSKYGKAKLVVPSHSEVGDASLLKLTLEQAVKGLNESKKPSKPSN
T6 sequence (P08183 whole entry): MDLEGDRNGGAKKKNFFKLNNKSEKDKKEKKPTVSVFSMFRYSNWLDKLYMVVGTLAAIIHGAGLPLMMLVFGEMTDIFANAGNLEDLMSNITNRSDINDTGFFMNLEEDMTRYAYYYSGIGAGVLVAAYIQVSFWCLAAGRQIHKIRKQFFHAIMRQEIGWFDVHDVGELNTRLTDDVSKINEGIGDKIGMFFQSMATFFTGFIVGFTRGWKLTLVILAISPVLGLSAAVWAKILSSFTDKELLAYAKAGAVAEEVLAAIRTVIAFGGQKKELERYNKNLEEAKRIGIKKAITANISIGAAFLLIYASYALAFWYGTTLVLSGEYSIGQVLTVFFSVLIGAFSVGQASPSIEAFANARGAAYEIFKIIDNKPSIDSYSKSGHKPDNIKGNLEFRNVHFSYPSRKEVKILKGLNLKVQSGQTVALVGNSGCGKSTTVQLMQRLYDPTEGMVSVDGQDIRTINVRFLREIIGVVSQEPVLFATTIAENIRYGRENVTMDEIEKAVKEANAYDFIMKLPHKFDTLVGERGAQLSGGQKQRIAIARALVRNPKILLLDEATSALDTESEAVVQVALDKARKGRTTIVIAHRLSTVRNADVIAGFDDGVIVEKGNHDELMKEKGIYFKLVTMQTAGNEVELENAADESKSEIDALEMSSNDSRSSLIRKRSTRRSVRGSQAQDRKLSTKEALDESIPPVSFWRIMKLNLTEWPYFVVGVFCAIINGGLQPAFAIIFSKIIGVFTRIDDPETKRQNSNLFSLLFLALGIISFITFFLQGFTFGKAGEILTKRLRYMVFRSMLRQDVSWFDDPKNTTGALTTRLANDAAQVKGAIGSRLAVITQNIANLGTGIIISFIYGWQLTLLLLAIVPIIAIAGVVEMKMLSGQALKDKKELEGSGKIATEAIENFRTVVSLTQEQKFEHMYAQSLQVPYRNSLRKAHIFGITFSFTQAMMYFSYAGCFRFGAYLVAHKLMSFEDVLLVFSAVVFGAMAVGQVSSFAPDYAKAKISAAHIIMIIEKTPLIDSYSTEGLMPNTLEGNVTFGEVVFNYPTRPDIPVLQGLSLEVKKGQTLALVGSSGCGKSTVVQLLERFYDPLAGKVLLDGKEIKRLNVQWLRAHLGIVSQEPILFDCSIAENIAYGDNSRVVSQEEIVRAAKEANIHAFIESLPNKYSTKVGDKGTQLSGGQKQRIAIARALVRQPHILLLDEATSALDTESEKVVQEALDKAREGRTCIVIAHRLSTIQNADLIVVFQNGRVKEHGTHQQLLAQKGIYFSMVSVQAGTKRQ
Sequence of Ras and Rab interactor 1/Tyrosine-protein kinase ABL1 (P00519 whole entry): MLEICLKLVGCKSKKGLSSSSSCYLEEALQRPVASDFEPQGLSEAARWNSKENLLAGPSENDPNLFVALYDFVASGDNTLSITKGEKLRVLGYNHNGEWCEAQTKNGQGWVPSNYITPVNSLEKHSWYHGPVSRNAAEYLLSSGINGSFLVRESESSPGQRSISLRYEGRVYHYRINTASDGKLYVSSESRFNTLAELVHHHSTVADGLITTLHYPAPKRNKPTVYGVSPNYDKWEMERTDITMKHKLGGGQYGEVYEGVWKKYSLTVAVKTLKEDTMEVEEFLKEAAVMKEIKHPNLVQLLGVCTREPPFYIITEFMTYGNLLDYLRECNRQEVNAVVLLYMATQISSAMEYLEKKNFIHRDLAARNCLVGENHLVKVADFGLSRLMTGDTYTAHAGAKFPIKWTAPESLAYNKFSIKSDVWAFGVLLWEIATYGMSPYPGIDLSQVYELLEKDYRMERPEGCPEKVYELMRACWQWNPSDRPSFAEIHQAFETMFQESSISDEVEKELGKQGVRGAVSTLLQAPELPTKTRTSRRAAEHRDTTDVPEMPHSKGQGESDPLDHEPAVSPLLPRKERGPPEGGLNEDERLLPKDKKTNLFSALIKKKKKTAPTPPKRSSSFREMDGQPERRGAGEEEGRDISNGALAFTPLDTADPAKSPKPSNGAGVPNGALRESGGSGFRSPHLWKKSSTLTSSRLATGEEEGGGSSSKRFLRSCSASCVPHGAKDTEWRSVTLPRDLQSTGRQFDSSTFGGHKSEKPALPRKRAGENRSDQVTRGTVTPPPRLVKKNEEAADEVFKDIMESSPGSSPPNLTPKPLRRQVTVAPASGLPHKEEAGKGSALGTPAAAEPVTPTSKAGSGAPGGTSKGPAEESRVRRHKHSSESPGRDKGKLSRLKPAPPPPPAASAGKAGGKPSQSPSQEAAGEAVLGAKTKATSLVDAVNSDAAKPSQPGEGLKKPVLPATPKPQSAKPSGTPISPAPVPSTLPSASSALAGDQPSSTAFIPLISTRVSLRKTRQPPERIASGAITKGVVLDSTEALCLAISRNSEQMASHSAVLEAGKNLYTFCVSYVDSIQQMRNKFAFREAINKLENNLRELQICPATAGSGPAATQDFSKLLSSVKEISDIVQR
Sequence of Ras and Rab interactor 1/Tyrosine-protein kinase ABL1 (Q13671 whole entry): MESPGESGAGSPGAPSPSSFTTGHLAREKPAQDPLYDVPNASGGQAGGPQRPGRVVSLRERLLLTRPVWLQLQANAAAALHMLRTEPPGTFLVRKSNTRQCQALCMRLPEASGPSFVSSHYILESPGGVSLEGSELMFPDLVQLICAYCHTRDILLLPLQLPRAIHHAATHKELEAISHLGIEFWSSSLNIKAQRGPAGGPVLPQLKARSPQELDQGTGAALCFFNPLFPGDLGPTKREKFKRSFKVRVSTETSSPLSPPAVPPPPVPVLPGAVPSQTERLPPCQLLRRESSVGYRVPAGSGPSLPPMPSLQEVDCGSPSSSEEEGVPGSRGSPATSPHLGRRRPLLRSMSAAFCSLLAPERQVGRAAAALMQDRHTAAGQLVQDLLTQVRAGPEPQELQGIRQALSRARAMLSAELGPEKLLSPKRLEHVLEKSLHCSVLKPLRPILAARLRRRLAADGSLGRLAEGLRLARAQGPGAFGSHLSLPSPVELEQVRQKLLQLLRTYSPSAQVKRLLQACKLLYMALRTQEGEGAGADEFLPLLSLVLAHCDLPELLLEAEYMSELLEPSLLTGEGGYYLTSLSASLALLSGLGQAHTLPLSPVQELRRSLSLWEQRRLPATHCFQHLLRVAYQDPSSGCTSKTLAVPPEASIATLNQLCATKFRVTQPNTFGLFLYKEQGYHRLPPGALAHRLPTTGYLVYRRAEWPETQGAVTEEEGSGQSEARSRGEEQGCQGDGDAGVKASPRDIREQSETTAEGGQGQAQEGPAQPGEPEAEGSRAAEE
Sequence of G-protein coupled receptor 55 (Q9Y2T6 whole entry, the tested form may be a part): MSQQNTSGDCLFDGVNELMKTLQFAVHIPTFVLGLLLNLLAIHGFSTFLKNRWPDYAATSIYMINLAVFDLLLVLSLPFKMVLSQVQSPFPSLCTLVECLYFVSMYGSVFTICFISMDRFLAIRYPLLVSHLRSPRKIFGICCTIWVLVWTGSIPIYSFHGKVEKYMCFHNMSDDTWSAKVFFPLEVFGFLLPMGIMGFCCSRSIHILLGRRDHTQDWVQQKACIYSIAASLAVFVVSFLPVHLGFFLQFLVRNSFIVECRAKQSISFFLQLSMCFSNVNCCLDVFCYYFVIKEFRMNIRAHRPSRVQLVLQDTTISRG
Sequence of Dual specificity protein phosphatase 3 (P51452 whole entry): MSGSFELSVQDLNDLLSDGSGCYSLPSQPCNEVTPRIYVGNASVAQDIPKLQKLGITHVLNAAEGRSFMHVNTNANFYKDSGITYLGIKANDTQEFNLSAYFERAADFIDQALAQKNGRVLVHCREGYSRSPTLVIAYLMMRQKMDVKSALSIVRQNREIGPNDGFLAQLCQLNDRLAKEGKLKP
Sequence of Tyrosine-protein phosphatase non-receptor type 5 (P54829 whole entry): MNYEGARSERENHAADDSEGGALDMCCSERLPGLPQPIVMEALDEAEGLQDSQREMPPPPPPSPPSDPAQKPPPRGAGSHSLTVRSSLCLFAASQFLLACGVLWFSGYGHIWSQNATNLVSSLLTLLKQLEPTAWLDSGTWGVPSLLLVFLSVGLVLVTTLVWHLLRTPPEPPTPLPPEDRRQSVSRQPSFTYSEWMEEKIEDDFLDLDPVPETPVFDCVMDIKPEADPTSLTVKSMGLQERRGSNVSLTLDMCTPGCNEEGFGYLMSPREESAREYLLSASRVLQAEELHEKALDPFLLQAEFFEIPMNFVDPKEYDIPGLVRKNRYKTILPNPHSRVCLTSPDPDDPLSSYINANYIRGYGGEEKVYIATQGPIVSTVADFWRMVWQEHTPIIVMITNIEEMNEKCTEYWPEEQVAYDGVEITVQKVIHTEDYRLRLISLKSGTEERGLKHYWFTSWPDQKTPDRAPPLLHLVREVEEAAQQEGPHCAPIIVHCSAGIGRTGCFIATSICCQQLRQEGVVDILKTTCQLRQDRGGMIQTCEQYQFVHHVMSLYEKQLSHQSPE
Sequence of 26S proteasome non-ATPase regulatory subunit 14 (O00487 whole entry): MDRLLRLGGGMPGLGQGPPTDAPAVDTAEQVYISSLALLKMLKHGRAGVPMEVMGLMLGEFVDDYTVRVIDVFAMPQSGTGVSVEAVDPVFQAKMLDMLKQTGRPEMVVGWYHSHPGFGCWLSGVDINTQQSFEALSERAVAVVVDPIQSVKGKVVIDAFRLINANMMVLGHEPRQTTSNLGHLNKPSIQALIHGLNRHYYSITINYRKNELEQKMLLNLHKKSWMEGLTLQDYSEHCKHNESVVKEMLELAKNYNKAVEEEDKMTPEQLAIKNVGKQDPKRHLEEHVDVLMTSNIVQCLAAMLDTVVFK

Cc1c(C)c2c(OCC(=O)N3CCC[C@H]3C(=O)O)cc3c(c2oc1=O)CCC(C)(C)O3
IC50 (Beta-lactamase [1]): > 59.6 µM (inactive)
IC50 (Beta-lactamase [2]): > 59.6 µM (inactive)
IC50 (Beta-lactamase [3]): > 59.6 µM (inactive)

COc1ccc(CN2C(=O)NC(=O)/C(=C\c3ccco3)C2=O)cc1
IC50 [4]: 12.7 µM (active)
IC50 (Prothrombin): 54.1 µM (active)
IC50 [5]: 3.34 µM (active)
IC50 [6]: 3.91 µM (active)
IC50 [7]: 12.3 µM (active)
AC50 [8]: 12.8 µM (active)
IC50 [9]: 26.5 µM (active)

COc1ccc(CCN(C)C(=O)c2cc(-c3ccccc3)nc3ccc(C)cc23)cc1OC
IC50 [10]: 0.478 µM (active)

CCOc1ccc(C(=O)Nc2cc(-c3nc4ccccc4[nH]3)ccc2Cl)cc1[N+](=O)[O-]
IC50 [11]: 29.9 µM (inactive)
EC50 [12]: 8.7 µM (active)
EC50 [13]: 8.99 µM (active)
IC50 [14]: 3.11 µM (active)
IC50 [15]: 2.14 µM (active)
IC50 [16]: 6.73 µM (active)

Cc1nc(N)nc(N)c1-c1ccc([N+](=O)[O-])cc1
IC50 [17]: 11.7 µM (active)
IC50 [18]: 12.3 µM (active)

CCN(CC(=O)Nc1ccc(NC(C)=O)cc1)C(=O)c1ccccc1SCc1c(C)noc1C
IC50 [19]: 2.22 µM (active)

O=C(c1ccoc1)N1CCN(c2cc(-c3ccccc3)nc3cc(-c4ccccc4)nn23)CC1
EC50 [20]: 1.79 µM (active)
EC50 [21]: 2.02 µM (active)
